# Entries after “also recorded” stand apart in the source; their conditions may differ.
# Assays:
# C. albicans (ATCC 90028) [1] = assay: Galleria mellonella infection (survival) assay; format: in vivo, Candida albicans in Galleria mellonella larvae; conditions: G. mellonella inoculated with C. albicans, 10 μL compound solution, 5 days, vs untreated control
# Method: In an initial survival assay, G. mellonella larvae were inoculated with C. albicans (ATCC 90028). The larvae were then injected with 10 μL of the compound solution, and their survival was monitored for the next 5 days. Fluconazole and 10% DMSO injections were used as controls.
# The globally available strains for C. albicans and C. neoformans, namely, ATCC 90028 and H99, respectively, were used to assess the antifungal potential of the panel of cobalt complex compounds in the G. mellonella insect model. Each strain was cultured on Sabouraud dextrose agar (SDA) for 24–48 h at 27 °C prior to inoculation. Yeast colonies were then suspended in a phosphate-buffered saline solution (PBS), and cells’ concentrations were adjusted using a Neubauer counting chamber to 5 × 10^7 cells for ATCC 90028 and 1 × 10^8 cells for H99. Compounds were prepared by dissolving in 100% dimethylsulfoxide (DMSO) to 4 or 10 mM depending on compound solubility before being further diluted with water to 0.4 or 1 mM for injection into larvae.
# Each group of larvae was subsequently incubated at 37 °C for 2 h in 90 mm Petri dishes. After incubation, larvae were injected with 10 μL of the compound into the last right pro-leg and returned to Petri dishes to incubate at 37 °C for 5 days. In addition to the panel of metal compounds, fluconazole (FLC) was included as a positive control (1 and 0.4 mM) and reference antifungal. Larvae inoculated with just the fungal strains and the fungal strains with 10% DMSO were also included as comparison groups. Larvae injected concurrently with PBS instead of fungal inoculum and compounds were used as negative controls. All larvae were checked daily for survival.
# [2] = tested on: Cryptococcus neoformans H99 ATCC 208821 type strain; assay: Antifungal MIC assay; format: cell-based; conditions: for MIC Cryptococcus neoformans ATCC 208821 / MIC / MIC50 Cryptococcus neoformans ATCC 208821: extended panel; for MIC Cryptococcus neoformans ATCC 208821 / MIC: second batch, ≥80 or ≥50% inhibition; for MIC Cn: initial CO-ADD dose-response screening, ≥80% growth inhibition; for MIC: read-out: MIC* Cryptococcus neoformans ATCC 208821; for MIC50 Cryptococcus neoformans ATCC 208821: 50% inhibition, MIC score 2
# How it was run: (§1)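 Broth microdilution in YNB medium, final inoculum 2.5 × 10^3 CFU/mL from colonies grown on YPD agar (30 °C, 3 days). Static incubation, 35 °C, 36 h. MIC = lowest concentration inhibiting growth ≥80%, per CLSI M27 scoring.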
# [3] = tested on: Candida tropicalis ATCC 750; assay: Antifungal MIC assay, extended panel; format: cell-based; conditions: extended panel, second batch; ≥80 or ≥50% inhibition
# How it was run: as §1
# [4] = tested on: Candida glabrata ATCC 90030 NCCLS 84; assay: Antifungal MIC assay, extended panel; format: cell-based; conditions: extended panel, second batch; ≥80 or ≥50% inhibition
# How it was run: as §1
# [5] = tested on: Cryptococcus deuterogattii CBS7750 VGII; Serotype B; assay: Antifungal MIC assay, extended panel; format: cell-based; conditions: extended panel, second batch; ≥80 or ≥50% inhibition
# How it was run: as §1
# [6] = tested on: Cryptococcus deuterogattii ATCC 32609 VGII; assay: Antifungal MIC assay, extended panel; format: cell-based; conditions: extended panel, second batch; ≥80 or ≥50% inhibition
# C. albicans (ATCC 90028) [7] = assay: Galleria mellonella infection (log CFU reduction) assay; format: in vivo, Candida albicans in Galleria mellonella larvae; conditions: 1 mM, 10 μL; Pt1 19 mg/kg, Pt2 28 mg/kg, fluconazole 12 mg/kg; 24 h at 37 °C; vs 10% DMSO control
# Method: To quantify the possible protective effect of Pt1 and Pt2 in G. mellonella challenged with C. albicans, we conducted a CFU reduction assay with these compounds. Briefly, G. mellonella larvae were inoculated with C. albicans (ATCC 90028) and incubated for 2 h at 37 °C. The larvae were then injected with 10 μL of the corresponding compound solution (1 mM) or control (same concentration and injection volume) and incubated for 24 h at 37 °C. The larvae were then anesthetized, macerated, and serially diluted onto SDA (Sabouraud dextrose agar) plates. After 48 h of incubation, the CFUs were counted.
# A log CFU reduction assay was conducted for two compounds and two control groups. […] Fluconazole (1 mM) and 10% DMSO were used once again as the control groups. Fifteen G. mellonella larvae (200–250 mg) per test group were selected and inoculated with 10 μL of C. albicans at a concentration of 5 × 10^7 cells/mL and incubated on 90 mm Petri dishes in groups of five larvae for 2 h at 37 °C. Larvae were then subsequently injected with 10 μL of the corresponding test compound or control and returned to Petri dishes to incubate for 24 h at 37 °C.
# Larvae were then anesthetized on ice for 5 to 10 min before being placed in individual prefilled 2 mL tubes with 3.0 mm diameter zirconium beads with 1000 μL of PBS. They were then macerated briefly using the BeadBug 6 Homogenizer (Benchmark Scientific, USA) in two 45 s intervals at 4350 rpm. After homogenization, serial dilutions of 1:100, 1:1000, and 1:10,000 were then made for each larva/tube, and 100 μL of the dilution was spread plated onto SDA plates with 50 μg/mL chloramphenicol. Plates were then incubated at 27 °C for 48 h before CFUs were counted.
# A one-way ANOVA was conducted to compare the CFU counts for Pt1, Pt2, and both controls. After a significant difference was observed between the groups, a subsequent Tukey’s pairwise test was used to compare the individual test groups with each other.
# MRSA = tested on: MRSA; set-up: method as in PMID 34018686; conditions: G. mellonella infected with MRSA; cited from earlier work
# [8] = Stability by NMR / UV-vis; format: physicochemical; conditions: for stability in DMSO solution, NMR or UV–vis spectra: after 24 h; for stability of solid samples, NMR spectra: room temperature, protected from light, 2 years
# Method: The ligands for these complexes (Ligand-Ag1 and Ligand-Ag2 in the SI) were originally studied for their solvatochromism and were later coordinated with silver to investigate their potential antimicrobial activity.[84] The carboxylate ion is able to coordinate to silver with monodentate, chelating, and/or bridging modes. […] The stability of complexes Ag1 and Ag2 was assessed.
# One concern with Pt1 is its potential stability under biological conditions. […] Future work will be aimed toward more comprehensive examinations of the chemical and biological stability of these and related compounds, as well as investigations into their mode of action.
# [9] = tested on: Escherichia coli ATCC 25922 FDA control strain; assay: CO-ADD antibacterial MIC assay; format: cell-based; conditions: initial CO-ADD dose-response screening; ≥80% growth inhibition
# How it was run: (§2)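 Growth inhibition is scored by absorbance at 600 nm after bacteria at 5 × 10^5 CFU/mL in cation-adjusted Mueller Hinton broth sit with compound for 18 h at 37 °C without shaking. The MIC is taken where inhibition reaches ≥80%, equivalent to no visible growth.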
# [10] = tested on: Pseudomonas aeruginosa ATCC 27853 QC control strain; assay: CO-ADD antibacterial MIC assay; format: cell-based; conditions: initial CO-ADD dose-response screening; ≥80% growth inhibition
# How it was run: as §2
# [11] = tested on: Cryptococcus deuterogattii ATCC 32609 VGII; assay: Antifungal MIC assay, extended panel; format: cell-based; conditions: extended panel; 50% inhibition, MIC score 2
# [12] = tested on: Cryptococcus deuterogattii CBS7750 VGII; Serotype B; assay: Antifungal MIC assay, extended panel; format: cell-based; conditions: extended panel; 50% inhibition, MIC score 2
# [13] = tested on: Candida glabrata ATCC 90030 NCCLS 84; assay: Antifungal MIC assay, extended panel; format: cell-based; conditions: extended panel; 50% inhibition, MIC score 2
# [14] = tested on: Candida tropicalis ATCC 750; assay: Antifungal MIC assay, extended panel; format: cell-based; conditions: extended panel; 50% inhibition, MIC score 2
MIC Cryptococcus deuterogattii CBS7750 [5],MIC Ec [9],MIC Pa [10],MIC50 Cryptococcus deuterogattii ATCC 32609 [11],MIC50 Cryptococcus neoformans ATCC 208821 [2],MIC Candida tropicalis ATCC 750 [3],MIC Candida glabrata ATCC 90030 [4],MIC50 Cryptococcus deuterogattii CBS7750 [12],MIC50 Candida glabrata ATCC 90030 [13],MIC50 Candida tropicalis ATCC 750 [14],SMILES,MIC Cryptococcus neoformans ATCC 208821 [2],MIC Cn [2],MIC [3],MIC [4],MIC Cryptococcus deuterogattii ATCC 32609 [6],other results
0.024 to 0.098 µM,>20 µM,>20 µM,0.024 µM,≤ 0.006 µM,≤0.006 to 0.049 µM,0.024 to 0.098 µM,0.024 to 0.098 µM,0.012 to 0.049 µM,≤0.006 to 0.049 µM,Cc1ccc2ccc3ccc(C)nc3c2n1.Cc1ccc2ccc3ccc(C)nc3c2n1.O=C([O][Eu]([O]C(=O)c1ccccc1F)[O]C(=O)c1ccccc1F)c1ccccc1F [Eu1],–,–,–,–,–,MIC [2]: ≤0.006 µM; MIC [6]: 0.024 µM
≤0.78 to 1.56 µM,>20 µM,>20 µM,–,–,12.5 to 25 µM,12.5 to 25 µM,–,–,–,CC(C)C([O][Pt][Cl])C1=CCCC=CCC1 (centres unmarked) [Pt4],≤0.78 to 1.56 µM,1.25 µM,–,–,3.12 to 6.25 µM,–
0.006 to 0.098 µM,>32 µg/mL,>32 µg/mL,≤0.006 to 0.098 µM,≤0.006 to 0.098 µM,≤0.006 to 0.049 µM,0.006 to 0.195 µM,≤0.006 to 0.049 µM,0.006 to 0.195 µM,≤0.006 to 0.049 µM,"O=C([O][Ag])c1ccc(N2N=C(/C=C/C=C/c3ccccc3)CC2/C=C/c2ccccc2)cc1.O=C([O][Ag])c1ccc(N2N=C(/C=C/C=C/c3ccccc3)CC2/C=C/c2ccccc2)cc1 (racemic) [Ag2, 1-(4-Carboxyphenyl)-3-{(1E,3E)-4-phenylbuta-1,3-dien-1-yl}-5-{(E)-styryl}-2-pyrazoline silver(I) complex]",≤0.006 to 0.098 µM,≤0.25 µg/mL,–,–,0.006 to 0.098 µM,"stability in DMSO solution, NMR or UV–vis spectra [8]: no changes; stability of solid samples, NMR spectra [8]: identical NMR spectra"
–,>32 µg/mL,>32 µg/mL,≤0.006 to 0.024 µM,≤ 0.006 µM,≤0.006 to 0.012 µM,–,≤ 0.006 µM,≤ 0.006 µM,≤ 0.006 µM,"COc1ccc(/C=C/C2=NN(c3ccc(C(=O)[O][Ag])cc3)C(c3ccc(OC)c(OC)c3)C2)cc1OC.COc1ccc(/C=C/C2=NN(c3ccc(C(=O)[O][Ag])cc3)C(c3ccc(OC)c(OC)c3)C2)cc1OC (racemic) [Ag1, (Ε)-1-(4-Carboxyphenyl)-5-(3,4-dimethoxyphenyl)-3-(3,4-dimethoxystyryl)-2-pyrazoline silver(I) complex]",–,≤0.25 µg/mL,–,≤0.006 µM,0.006 to 0.024 µM,"MIC [2]: ≤0.006 µM; MIC [5]: 0.006 µM; stability in DMSO solution, NMR or UV–vis spectra [8]: no changes; stability of solid samples, NMR spectra [8]: identical NMR spectra"

# More lines, now with the values behind:
SMILES,MIC Cryptococcus deuterogattii CBS7750 [5],MIC Ec [9],MIC Pa [10],MIC50 Cryptococcus deuterogattii ATCC 32609 [11],MIC50 Cryptococcus neoformans ATCC 208821 [2],MIC Candida tropicalis ATCC 750 [3],MIC Candida glabrata ATCC 90030 [4],MIC50 Cryptococcus deuterogattii CBS7750 [12],MIC50 Candida glabrata ATCC 90030 [13],MIC50 Candida tropicalis ATCC 750 [14],MIC Cryptococcus neoformans ATCC 208821 [2],MIC Cn [2],MIC [3],MIC [4],MIC Cryptococcus deuterogattii ATCC 32609 [6],other results
C1=CCCC=CCC1.[Cl][Pt][Cl] [Pt1],1.56 to 3.13 µM,>20 µM,>20 µM,–,–,–,–,–,–,–,1.56 to 3.13 µM,2.5 µM,25 µM,25 µM,3.125 to 6.25 µM,"larva survival (C. albicans (ATCC 90028) [1]): significant larva survival; also recorded: showed some efficacy; reduction in CFUs (C. albicans (ATCC 90028) [7]): 0.7 log10; reduction in bacterial load (MRSA): did not elicit a significant reduction in bacterial load; stability in DMSO, 1H NMR spectrum ([8]; 7 days at room temperature): no changes of the ^1H NMR spectrum"
CC(=NN=C(N)[S-])C(C)=NN=C(N)[S-].O=[N+]([O-])[O-].[Co+3].c1c[nH]cn1.c1c[nH]cn1 [Co1],–,>32 µg/mL,>32 µg/mL,–,–,–,–,–,–,–,0.39 to 0.78 µM,0.5 µg/mL,0.39 µM,100 µM,0.78 to 1.56 µM,MIC [5]: 1.56 µM
C1=CCCC=CCC1.[I][Pt][I] [Pt2],≤0.78 to 3.13 µM,>20 µM,>20 µM,–,–,–,–,–,–,–,1.56 to 3.13 µM,1.25 µM,50 µM,50 µM,6.25 to 12.5 µM,larva survival (C. albicans (ATCC 90028) [1]): significant larva survival; also recorded: showed some efficacy; reduction in CFUs (C. albicans (ATCC 90028) [7]): CFUs comparable to the DMSO control

# Source: paper PMC9597602, “Metal Complexes as Antifungals? From a Crowd-Sourced Compound Library to the First In Vivo Experiments” (JACS Au, 2022)
